Where two headings read alike, the source gives them in different places.
Key:
human TLR8 = molecular target: T1, human TLR8 (Homo sapiens, UniProt Q9NR97); assay: hTLR8 agonist reporter assay in HEK293 cells (NFκB-SEAP); assay type: cell-based; details: for EC50: read-out: hTLR8 ED50
T1 construct: host or cells: HEK293
T1 sequence (Q9NR97 27-1041): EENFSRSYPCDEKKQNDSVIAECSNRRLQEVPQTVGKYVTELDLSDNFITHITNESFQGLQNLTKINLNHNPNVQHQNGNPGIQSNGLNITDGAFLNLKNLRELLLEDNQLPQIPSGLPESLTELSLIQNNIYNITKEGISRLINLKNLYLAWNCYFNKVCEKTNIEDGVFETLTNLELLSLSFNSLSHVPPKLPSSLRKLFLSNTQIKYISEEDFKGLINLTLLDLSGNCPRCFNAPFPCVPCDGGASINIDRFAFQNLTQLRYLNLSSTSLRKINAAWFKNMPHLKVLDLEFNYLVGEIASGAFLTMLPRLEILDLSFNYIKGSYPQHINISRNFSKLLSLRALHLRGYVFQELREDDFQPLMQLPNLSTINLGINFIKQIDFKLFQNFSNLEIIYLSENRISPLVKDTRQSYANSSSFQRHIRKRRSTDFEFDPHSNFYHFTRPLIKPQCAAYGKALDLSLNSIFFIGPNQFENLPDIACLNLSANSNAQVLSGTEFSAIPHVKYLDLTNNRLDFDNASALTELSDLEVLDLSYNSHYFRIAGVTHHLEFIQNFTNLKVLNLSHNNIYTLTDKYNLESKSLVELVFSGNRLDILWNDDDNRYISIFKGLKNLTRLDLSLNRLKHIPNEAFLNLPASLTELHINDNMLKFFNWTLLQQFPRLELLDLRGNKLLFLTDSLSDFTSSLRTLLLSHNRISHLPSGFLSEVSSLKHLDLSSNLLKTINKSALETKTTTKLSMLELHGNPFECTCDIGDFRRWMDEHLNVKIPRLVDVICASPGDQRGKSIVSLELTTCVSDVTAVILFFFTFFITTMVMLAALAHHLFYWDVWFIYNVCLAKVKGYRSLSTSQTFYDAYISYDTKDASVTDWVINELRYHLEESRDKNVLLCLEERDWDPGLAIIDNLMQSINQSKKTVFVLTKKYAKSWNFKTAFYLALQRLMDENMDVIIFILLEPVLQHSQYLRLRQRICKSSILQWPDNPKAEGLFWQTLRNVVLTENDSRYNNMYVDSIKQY
Experimental: Assay for hTLR7 and hTLR8 Agonist Activity in HEK-293 Cells
Determination of TLR agonist activity was performed using the HEK293 […]. This assay measures TLR7 and TLR8 selectivity and potency of the compounds tested. HEK293 cells expressing human TLR7 or TLR8 and NFκB responsive Secreted Embryonic Alkaline Phosphatase (SEAP) reporter gene were obtained from InvivoGen (San Diego, Calif.). These cells were maintained in culture media of Dulbecco's Modified Eagle Medium (DMEM) (Invitrogen, Grand Island, N.Y.), 10% Fetal Bovine Serum (FBS) (Sigma, St. Louis, Mo.) and selection antibiotics (Invitrogen, and Invivogen). HEK293 stably transfected with human TLR7 (hTLR7) or human TLR8 (hTLR8) were stimulated for 24 h with aqueous formulations of test compounds and culture supernatants were analyzed for NFκB activation using the colorimetric SEAP detection kit QuantBlue (InvivoGen).

[1] = system: human peripheral blood mononuclear cells (hPBMCs); assay: TNF-α induction in hPBMCs; assay type: cell-based; details: 24 h
Experimental: Assays to Measure Cytokine Induction
Test compounds were evaluated for cytokine induction in human peripheral blood mononuclear cells (hPBMCs).
Primary human PBMCs were isolated from fresh blood from healthy donors via Ficoll gradient separation and plated at 0.5×10^6 cells/well in 96-well tissue culture plates (RPMI-1640 plus 10% FBS). hPBMCs were maintained with RPMI-1640 culture media (Invitrogen, Grand Island, N.Y.), antibiotics (Invitrogen) and 10% FBS (Sigma).
Incubation and Assays for IFN-γ, IFN-α and TNF-α
hPBMCs were stimulated for 24 h with aqueous formulations of test compounds. Culture supernatants were analyzed for TNF-α and IFN-γ induction using multiplex kits (FluoroKine multiplex kits from R&D Systems, Minneapolis, Minn.) and for IFN-α induction using human IFN-α VeriKine ELISA kit (Pestka Biomedical Laboratories, Inc., Piscataway, N.J.).

CCCCCCCC/C=C\CCCCCCCC(=O)OC[C@H](COP(=O)(O)OCCOc1ccc2c(c1)nc(N)c1nc(CCCC)n(CCO)c12)OC(=O)CCCCCCC/C=C\CCCCCCCC [Example 1]
EC50 (human TLR8; Table 1, FIG. 2, 24 h stimulation, aqueous formulations): 0.1 µM
EC50 (human TLR8; Table 2, FIG. 4, another occasion, * = only very low levels of NFKB activation were detected): 0.8 µM
hTLR8 agonist activity, in words (human TLR8; Table 3, FIG. 6): agonist of both TLR7 and TLR8
EC50 (human TLR8; Table 3, FIG. 6, another occasion, * = only very low levels of NFKB activation were detected): 0.59 µM
EC50 (human TLR8; Table 4, FIG. 8, another occasion): 0.71 µM
hTLR8 agonist activity, in words (human TLR8; text on Table 1, FIG. 2): significantly more potent as an agonist of hTLR7 and hTLR8 than Comparative Example 2
hTLR8 agonist activity, in words (human TLR8; text on Table 2, FIG. 4): more active than Comparative Example 2 as an agonist of hTLR7 and hTLR8
TNF-α induction, in words ([1]; FIG. 13): potent at inducing TNF-α
TNF-α induction, in words ([1]; FIG. 15, another occasion): effective at inducing TNF-α

— patent publication US11274115B2, “Imidazoquinoline derivatives and their use in therapy” (GLAXOSMITHKLINE BIOLOGICALS SA, priority 2016, dated 2022)
